Earlier results on 2 compounds are cited in PubChem BioAssay AID493017.

Molecules are shown by their SMILES.

Usually IC50 stands for the midpoint of a concentration-inhibition curve. In general, Ki refers to the equilibrium dissociation constant of an inhibitor or competing ligand from its target.

Data set [1] deals with Cyclin-dependent kinase 2 (Homo sapiens) (UniProt P24941). Description: PubChem AID 493017. The following applies: WOMBAT literature affinities, multiple human targets; CDK2; gene CDK2; NCBI gene 1017.
For data set [2], the target named is Serine/threonine-protein kinase Chk1 (Homo sapiens) (UniProt O14757). The experiment in a line: PubChem AID 493017. The following applies: WOMBAT literature affinities, multiple human targets; binding affinity Ki; Chk1; gene CHEK1; NCBI gene 1111.
Sequence of Serine/threonine-protein kinase Chk1 (Homo sapiens) (O14757 whole entry, looked up): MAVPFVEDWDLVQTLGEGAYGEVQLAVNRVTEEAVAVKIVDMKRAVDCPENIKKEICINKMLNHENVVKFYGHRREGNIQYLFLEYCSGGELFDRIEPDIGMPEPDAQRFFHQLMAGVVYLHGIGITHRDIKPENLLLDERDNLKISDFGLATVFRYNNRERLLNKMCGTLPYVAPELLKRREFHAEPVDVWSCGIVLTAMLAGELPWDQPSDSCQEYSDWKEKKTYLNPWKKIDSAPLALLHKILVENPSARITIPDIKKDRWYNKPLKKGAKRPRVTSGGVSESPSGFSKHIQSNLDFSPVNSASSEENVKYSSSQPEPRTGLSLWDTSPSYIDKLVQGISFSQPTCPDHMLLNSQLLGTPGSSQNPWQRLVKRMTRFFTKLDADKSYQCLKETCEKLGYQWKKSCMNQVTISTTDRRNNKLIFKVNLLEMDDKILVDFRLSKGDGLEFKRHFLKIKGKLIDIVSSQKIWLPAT

As to `COc1ccc(-c2[nH][nH]c3c4cccc(NC(=O)N=NC(C)=O)c4c(O)c2-3)cc1`, in data set [1], the IC50 was 37 nM.
With `O=C(Nc1ccc(O)cc1)c1ccc2c(-c3nc4ccccc4[nH]3)n[nH]c2c1`, the Ki in data set [2] was 301 nM.
